Read-outs that look alike come from different tables or passages of the source.
Key:
[1] = target: LXR α LBD protein (Homo sapiens (Human), UniProt Q13133); test: LXR α radioligand binding assay (SPA, competition with [3H]TO901317); details: read-out: LXRα Binding Ki
[2] = target: Gal4 DNA binding domain fused to the LBD of LXRα in HEK293 cells (Homo sapiens (Human), UniProt Q13133); test: LXR luciferase transcriptional reporter gene assay, agonist mode, LXRα; type: cell-based; details: for EC50: read-out: Cell LXRα EC50
Sequence of Gal4 DNA binding domain fused to the LBD of LXRα in HEK293 cells (Q13133 209-447): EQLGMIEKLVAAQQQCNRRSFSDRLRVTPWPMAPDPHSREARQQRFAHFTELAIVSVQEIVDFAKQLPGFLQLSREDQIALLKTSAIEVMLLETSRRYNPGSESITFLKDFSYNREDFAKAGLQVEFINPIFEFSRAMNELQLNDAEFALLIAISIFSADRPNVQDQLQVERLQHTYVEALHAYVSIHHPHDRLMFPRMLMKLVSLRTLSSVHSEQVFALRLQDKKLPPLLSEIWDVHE

[3] = target: Gal4 DNA binding domain fused to the LBD of LXRβ in HEK293 cells (Homo sapiens (Human), UniProt P55055); test: cell-based
Sequence of Gal4 DNA binding domain fused to the LBD of LXRβ in HEK293 cells (P55055 222-460 limits assumed): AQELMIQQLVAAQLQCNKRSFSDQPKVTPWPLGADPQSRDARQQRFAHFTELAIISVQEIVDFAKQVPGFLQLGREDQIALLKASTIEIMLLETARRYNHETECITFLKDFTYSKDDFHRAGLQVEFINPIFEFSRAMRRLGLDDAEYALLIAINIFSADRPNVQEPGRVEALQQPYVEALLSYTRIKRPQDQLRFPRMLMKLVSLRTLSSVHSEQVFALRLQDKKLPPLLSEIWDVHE

[4] = target: LXR β LBD protein (Homo sapiens (Human), UniProt P55055); test: biochemical; type: binding; details: read-out: LXRβ Binding Ki
Sequence of LXR β LBD protein (P55055 222-460 limits assumed): as above

Sequence of LXR α LBD protein (Q13133 209-447): as the sequence (Q13133 209-447) above

SMILES | Ki [1] | Cell LXRα efficacy [2] | EC50 ([2]; agonist mode) | EC50 [3] | Cell LXRβ efficacy ([3]; agonist mode) | Ki [4] | EC50 [2] | Cell LXRβ efficacy [3]
CC(C)[C@@H]1CN(c2ccc(F)c(S(C)(=O)=O)c2)CCN1c1nccc(C#N)n1 [7-7, (R)-2-(4-(4-fluoro-3-(methylsulfonyl)phenyl)-2-isopropylpiperazin-1-yl)pyrimidine-4-carbonitrile] | 0.421 µM | 1467 (69) % | 1.47 µM | 0.404 µM | 404 (60) % | 0.047 µM |  | 
Cc1cc(C#N)nc(N2CCN(c3ccc(F)c(S(C)(=O)=O)c3)C[C@H]2C(C)C)n1 [7-8, (R)-2-(4-(4-fluoro-3-(methylsulfonyl)phenyl)-2-isopropylpiperazin-1-yl)-6-methylpyrimidine-4-carbonitrile] | > 3.33 µM | 17317 (26) % | 17.3 µM | 1.52 µM | 1521 (21) % | 1.01 µM |  | 
CC(C)[C@@H]1CN(c2cccc(S(C)(=O)=O)c2)CCN1c1ncc(OC(F)F)cn1 [7-11, (R)-5-(difluoromethoxy)-2-(2-isopropyl-4-(3-(methylsulfonyl)phenyl)piperazin-1-yl)pyrimidine] | 0.898 µM | 3658 (71) % |  | 1.2 µM | 1198 (48) % | 0.078 µM | 3.66 µM | 
COC(=O)c1cnc(N2CCN(c3ccc(F)c(S(C)(=O)=O)c3)C[C@H]2C(C)C)nc1 [7-14, methyl (R)-2-(4-(4-fluoro-3-(methylsulfonyl)phenyl)-2-isopropylpiperazin-1-yl)pyrimidine-5-carboxylate] | 2.87 µM | 7124 (30) % |  | 0.379 µM | 379 (17) % | 0.285 µM | 7.12 µM | 
COC(=O)c1ccnc(N2CCN(c3ccc(F)c(S(C)(=O)=O)c3)C[C@H]2C(C)C)n1 [7-15, methyl (R)-2-(4-(4-fluoro-3-(methylsulfonyl)phenyl)-2-isopropylpiperazin-1-yl)pyrimidine-4-carboxylate] | 0.213 µM | 1102 (85) % |  | 0.213 µM |  | 0.02 µM | 1.1 µM | 213 (65) %
Cc1cc(C(F)(F)F)nc(N2CCN(c3ccc(F)c(S(C)(=O)=O)c3)C[C@H]2C(C)C)n1 [7-18, (R)-2-(4-(4-fluoro-3-(methylsulfonyl)phenyl)-2-isopropylpiperazin-1-yl)-4-methyl-6-(trifluoromethyl)pyrimidine] | 0.105 µM | 1110 (61) % |  | 0.161 µM |  | 0.009 µM | 1.11 µM | 161 (44) %
CCOC(=O)c1cnc(N2CCN(c3ccc(F)c(S(C)(=O)=O)c3)C[C@H]2C(C)C)nc1C [7-19, ethyl (R)-2-(4-(4-fluoro-3-(methylsulfonyl)phenyl)-2-isopropylpiperazin-1-yl)-4-methylpyrimidine-5-carboxylate] | 0.162 µM | 909 (40) % | 0.909 µM | 0.176 µM |  | 0.017 µM |  | 176 (32) %
Cc1nc(N2CCN(c3ccc(F)c(S(C)(=O)=O)c3)C[C@H]2C(C)C)ncc1Br [7-20, (R)-5-bromo-2-(4-(4-fluoro-3-(methylsulfonyl)phenyl)-2-isopropylpiperazin-1-yl)-4-methylpyrimidine] | 0.101 µM | 787 (80) % | 0.787 µM | 0.142 µM |  | 0.008 µM |  | 142 (57) %
CC(C)[C@@H]1CN(c2ccc(F)c(S(C)(=O)=O)c2)CCN1c1cncc(C(F)(F)F)n1 [7-45, (R)-2-(4-(4-fluoro-3-(methylsulfonyl)phenyl)-2-isopropylpiperazin-1-yl)-6-(trifluoromethyl)pyrazine] | 0.115 µM | 377 (85) % | 0.377 µM | 0.136 µM |  | 0.012 µM |  | 136 (71) %
CC(C)[C@@H]1CN(c2ccc(F)c(S(C)(=O)=O)c2)CCN1c1nc2ccccc2o1 [7-52, (R)-2-(4-(4-fluoro-3-(methylsulfonyl)phenyl)-2-isopropylpiperazin-1-yl)benzo[d]oxazole] | 0.365 µM | 1018 (76) % |  | 0.192 µM |  | 0.041 µM | 1.02 µM | 192 (48) %
CC(C)[C@@H]1CN(c2ccc(F)c(S(C)(=O)=O)c2)CCN1c1nc2c(F)cccc2s1 [7-54, (R)-4-fluoro-2-(4-(4-fluoro-3-(methylsulfonyl)phenyl)-2-isopropylpiperazin-1-yl)benzo[d]thiazole] | 0.068 µM | 371 (95) % |  | 0.077 µM |  | 0.009 µM | 0.371 µM | 77 (80) %
CC(C)[C@@H]1CN(c2ccc(F)c(S(C)(=O)=O)c2)CCN1c1nc2ccc(F)cc2s1 [7-55, (R)-6-fluoro-2-(4-(4-fluoro-3-(methylsulfonyl)phenyl)-2-isopropylpiperazin-1-yl)benzo[d]thiazole] | 0.12 µM | 439 (68) % |  | 0.106 µM |  | 0.014 µM | 0.439 µM | 106 (55) %
CC(C)[C@@H]1CN(c2ccc(F)c(S(C)(=O)=O)c2)CCN1c1nc2ccccc2s1 [7-56, (R)-2-(4-(4-fluoro-3-(methylsulfonyl)phenyl)-2-isopropylpiperazin-1-yl)benzo[d]thiazole] | 0.146 µM | 770 (70) % |  | 0.099 µM |  | 0.015 µM | 0.77 µM | 99 (51) %
CC(C)[C@@H]1CN(c2ccc(F)c(S(C)(=O)=O)c2)CCN1c1nc2cnccc2s1 [7-58, (R)-2-(4-(4-fluoro-3-(methylsulfonyl)phenyl)-2-isopropylpiperazin-1-yl)thiazolo[4,5-c]pyridine] | 2.96 µM | 6486 (31) % |  | 1.15 µM |  | 0.509 µM | 6.49 µM | 1154 (31) %
CC(C)[C@@H]1CN(c2ccc(F)c(S(C)(=O)=O)c2)CCN1c1nc2ncccc2s1 [7-59, (R)-2-(4-(4-fluoro-3-(methylsulfonyl)phenyl)-2-isopropylpiperazin-1-yl)thiazolo[4,5-b]pyridine] | 0.281 µM | 827 (84) % |  | 0.289 µM |  | 0.039 µM | 0.827 µM | 289 (83) %
COC(=O)c1cnc(N2CCN(c3ccc(F)c(S(C)(=O)=O)c3)CC2C(C)(C)C)nc1C(F)(F)F (stereo not shown) [9-5, methyl 2-(2-(tert-butyl)-4-(4-fluoro-3-(methylsulfonyl)phenyl)piperazin-1-yl)-4-(trifluoromethyl)pyrimidine-5-carboxylate] | 0.041 µM | 504 (46) % |  | 0.082 µM | 82 (21) % | 0.009 µM | 0.504 µM | 
CNS(=O)(=O)c1cc(N2CCN(c3ncc(C(=O)OC)c(C(F)(F)F)n3)[C@H](C(C)C)C2)ccc1F [9-6, methyl (R)-2-(4-(4-fluoro-3-(N-methylsulfamoyl)phenyl)-2-isopropylpiperazin-1-yl)-4-(trifluoromethyl)pyrimidine-5-carboxylate] | 0.101 µM | 503 (59) % | 0.503 µM | 0.074 µM |  | 0.008 µM |  | 74 (41) %
CCOC(=O)c1cnc(N2CCN(c3cccc(S(C)(=O)=O)c3)C[C@H]2c2nc(C)cs2)nc1C(F)(F)F [9-8, ethyl (S)-2-(4-(3-(methylsulfonyl)phenyl)-2-(4-methylthiazol-2-yl)piperazin-1-yl)-4-(trifluoromethyl)pyrimidine-5-carboxylate] | 2.35 µM |  | > 20 µM | 2.47 µM | 2469 (14) % | 0.659 µM |  | 
CCOC(=O)c1cnc(N2CCN(c3ccc(-c4nnc(C)o4)c(S(C)(=O)=O)c3)C[C@H]2C(C)C)nc1C(F)(F)F [9-11, ethyl (R)-2-(2-isopropyl-4-(4-(5-methyl-1,3,4-oxadiazol-2-yl)-3-(methylsulfonyl)phenyl)piperazin-1-yl)-4-(trifluoromethyl)pyrimidine-5-carboxylate] | 2.14 µM |  |  | 0.869 µM | 869 (9) % | 0.839 µM | > 20 µM | 
CCOC(=O)c1cnc(N2CCN(c3ccc(-c4nnc(C)s4)c(S(C)(=O)=O)c3)C[C@H]2C(C)C)nc1C(F)(F)F [9-13, ethyl (R)-2-(2-isopropyl-4-(4-(5-methyl-1,3,4-thiadiazol-2-yl)-3-(methylsulfonyl)phenyl)piperazin-1-yl)-4-(trifluoromethyl)pyrimidine-5-carboxylate] | 0.703 µM | 2862 (21) % | 2.86 µM | 1.2 µM | 1204 (34) % | 0.171 µM |  | 
CC(C)[C@@H]1CN(c2ccc(F)c(S(N)(=O)=O)c2)CCN1c1ncc(C(C)(C)O)c(C(F)(F)F)n1 [10-2, (R)-2-fluoro-5-(4-(5-(2-hydroxypropan-2-yl)-4-(trifluoromethyl)pyrimidin-2-yl)-3-isopropylpiperazin-1-yl)benzenesulfonamide] | 0.469 µM | 2692 (45) % | 2.69 µM | 0.475 µM | 475 (39) % | 0.034 µM |  | 
CC(C)(O)c1cnc(N2CCN(c3ccc(F)c(S(C)(=O)=O)c3)CC2C(C)(C)C)nc1C(F)(F)F (stereo not shown) [10-4, 2-(2-(2-(tert-butyl)-4-(4-fluoro-3-(methylsulfonyl)phenyl)piperazin-1-yl)-4-(trifluoromethyl)pyrimidin-5-yl)propan-2-ol] | 0.059 µM | 1034 (28) % |  | 0.128 µM | 128 (13) % | 0.006 µM | 1.03 µM | 

Source: patent publication US10144715B2, “Piperazine derivatives as liver X receptor modulators” (priority 2014, dated 2018)
